In brackets after ≈: the same amount, converted by molar mass.
Columns and labels:
[1] = tested on: panel of cancer cell lines; set-up: method as in PMID 39454890; conditions: ref [48]; read-out: IC50 against a panel of cancer cell lines; cited from earlier work
[2] = tested on: CCL-1 cell line; assay: Live-cell imaging with Hoechst for apoptosis detection; format: cell-based; conditions: positive control, 5 to 72 h
Description: Cell suspension was seeded in the same manner as for MTT, but 50 µL per well in 96-well clear bottom plates. […] For the hypertonic buffer, the exposure time was 2 h, and the cells were plated at twice the concentration as for the MTT and cytopathic tests in order to comply with the kit protocol.
At least two wells were seeded as replicates, and at least two photographs were taken for all samples and treatments, stained with dyes or not.

[3] = tested on: breast cancer cell line; set-up: method as in PMID 26865836; conditions: 24 h, ref [93]; cited from earlier work
[4] = tested on: HT-22 and SH-SY5Y cells; conditions: concentration where viability was restored to about 75%, ref [103]; read-out: Effective concentration 50 (EC50), neuroprotection; cited from earlier work
[5] = tested on: Human embryonic kidney-293 (HEK-293); assay: MTT assay for cytotoxicity; format: cell-based; conditions: for IC50, HEK-293: MTT assay; for IC50: converted to µM
Description: (§1) The MTT assay was performed according to Annex C, ISO 10993-5 [56] as in [116]. The panel of non-tumorigenic cell lines consisted of one murine (CCL-1 fibroblasts, which are recommended as a standard for cytotoxicity evaluation in Annex C of ISO 10993-5 [56]) and four human cell lines—HaCaT (immortalized epidermal keratinocytes), HGF (gingival fibroblasts), HEK-293 (embryonic cells from kidney epithelium), and HEPG2 (hepatoblastoma). Although technically a cancer cell line, HEPG2 is non-tumorigenic and retains many hepatocyte-related features in its proteome and a high degree of morphological and functional differentiation, also being a stage one hepatoblastoma.
(§2) CCL-1 was purchased from ATCC and HaCaT and HGF were bought from CLS Cell Lines Service (GmbH, Eppelheim, Germany). HEK-293 and HEPG2 were obtained from DSMZ. The cell culture medium for HaCaT and HEPG2 was Dulbecco’s Modified Eagle Medium (DMEM) with 4.5 g/L glucose (DMEM-HA). For HGF it was DMEM/F-12 (DMEM-12-A, a 1:1 mixture of DMEM and Ham’s F-12 medium). The cell medium for CCL-1 and HEK-293 was Eagle’s Minimum Essential Medium (MEM) (MEM-A). Ten percent heat-inactivated fetal bovine serum (FBS) was added to all media but to the one for the CCL-1 cells, to which 10% heat-inactivated horse serum was added. All media were supplemented with 2 mM L-glutamine and Penicillin/Streptomycin (Pen/Strep, 100×). The cell culture media, sera, and additives were from Capricorn Scientific (Düsseldorf, Germany).
(§3) GraphPad Prism software version 9 (GraphPad Software Inc., San Diego, CA, USA) was used to calculate the IC50 values from the MTT assays as in [116], as well as the MTC values, and the ELISA standard curves. The MTC values are, according to ISO 10993-5, the maximum concentration at which at least 70% of the cells are viable (nonlin fit, range).

[6] = tested on: Human gingival fibroblasts (HGF); assay: MTT assay for cytotoxicity; format: cell-based; conditions: for IC50, HGF: MTT assay; for IC50: converted to µM
Description: as §1, §2, §3

[7] = tested on: Staphylococcus aureus; assay: MIC and MBC evaluation (broth microdilution, agar plate assay); format: cell-based; conditions: for MBC/MIC ratio, S. aureus: bactericidal if ≤ 4, bacteriostatic if > 4; for MBC: read-out: Minimal bactericidal concentration (MBC), Staphylococcus aureus
Description: (§4) The MIC and MBC assessment on the pathogenic bacteria and the candidate probiotic lactic acid bacteria was carried out by the broth microdilution assay (BMD) and the agar plate assay, respectively, as described in [4]. The metabolic (dehydrogenase) activity of the lactic acid bacteria was assessed as described in [4].
(§5) P. aeruginosa PAO1 ATCC 15692 was purchased from the American Type Cell Culture Collection (ATCC, Manassas, VA, USA). S. mutans DSM 20523 was bought from the German Collection of Microorganisms and Cell Cultures (DSMZ GmbH, Braunschweig, Germany). All other bacteria and strains were purchased as described in [4].

[8] = tested on: Enterococcus faecalis; conditions: ref [4],[29]; cited from earlier work
[9] = tested on: Staphylococcus aureus; conditions: ref [4],[29]; cited from earlier work
[10] = tested on: Methicillin-Resistant S. aureus (MRSA); conditions: ref [4],[29]; cited from earlier work
[11] = tested on: HEK-293 cells; assay: Colony-forming unit assay; format: cell-based, human; conditions: for Percentage of colonies, HEK-293: untreated control = 100%
Description: (§6) The CFU was also performed according to ISO 10993-5 [56]. Briefly, the cell lines were seeded at a concentration like for the MTT assay in 6-well plates, treated with the chosen agents and left for a 48 h exposure. Then, the cells were trypsinized, and pre-calculated 20 to 100 µL from the cell suspension was added to a sterile Roswell Park Memorial Institute (RPMI) medium (RPMI-A, Capricorn Scientific), containing 20% of the respective cell culture medium for each cell line but with a final concentration of FBS and L-glutamine of 40–42% and 0.8–1.2 mM, respectively, 0.2% NaHCO3 (S6297, Merck Sigma-Aldrich, Saint Louis, MI, USA), and 0.8% methylcellulose (M0512, Merck Sigma-Aldrich) for viscosity. The viscous cell solution was vortexed for 10 s and dispensed in an equal number of cells per well in 6-well plates (1.2 mL per well) in triplicate for each concentration of treatment. HaCaT and HEK-293 were seeded at a concentration of 2500 cells per mL, CCL-1 and HEPG2—2000 cells per mL, and HGF—1000 cells per mL. The plates were incubated for 6 to 10 days, and when the colonies reached 20 to 50 cells per colony, 100 µL MTT salt solution was added to each well. After half an hour, the stained colonies were counted manually using a microscope.

[12] = tested on: HaCaT cells; assay: Colony-forming unit assay; format: cell-based, human; conditions: for Colonies per well for HaCaT cells: mean of three wells; for Percentage of colonies, HaCaT: untreated control = 100%
Description: as §6

[13] = tested on: CCL-1 cells; assay: Colony-forming unit assay; format: cell-based, murine; conditions: for Percentage of colonies, CCL-1: untreated control = 100%
Description: as §6

[14] = tested on: HEPG2; assay: MTT assay for cytotoxicity; format: cell-based, human; conditions: for IC50, HEPG2: MTT assay; for IC50: converted to µM
Description: as §1, §2, §3

[15] = tested on: HaCaT; assay: MTT assay for cytotoxicity; format: cell-based, human; conditions: for IC50, HaCaT: MTT assay; for IC50: converted to µM
Description: as §1, §2, §3

[16] = tested on: CCL-1; assay: MTT assay for cytotoxicity; format: cell-based, murine; conditions: for IC50, CCL-1: MTT assay; for IC50: converted to µM
Description: as §1, §2, §3

[17] = tested on: Streptococcus pyogenes; conditions: ref [4],[29]; cited from earlier work
[18] = tested on: Streptococcus pyogenes; assay: MIC and MBC evaluation (broth microdilution, agar plate assay); format: cell-based
Description: as §4, §5

[19] = tested on: Pseudomonas aeruginosa PAO1; assay: as above; format: cell-based
Description: as §4, §5

[20] = tested on: Enterococcus faecalis; assay: as above; format: cell-based
Description: as §4, §5

[21] = tested on: Methicillin-Resistant S. aureus (MRSA); assay: as above; format: cell-based, Staphylococcus aureus
Description: as §4, §5

[22] = tested on: unspecified fibroblasts; conditions: up to 30 μg/mL for 24 h, ref [93]; cited from earlier work
[23] = bactericidal if ≤ 4, bacteriostatic if > 4

O=c1c(-c2c(O)cc(O)c3c(=O)cc(-c4ccc(O)cc4)oc23)c(-c2ccc(O)cc2)oc2cc(O)cc(O)c12 [I3-II8-biapigenin]
IC50 [1]: 107 to 198 µM

COc1cccc2c1C(=O)c1c(O)c3c(c(O)c1C2=O)C[C@@](O)(C(C)=O)C[C@@H]3O[C@H]1C[C@H](N)[C@H](O)[C@H](C)O1 [daunorubicin, reference compound]
Highly condensed and shrunken nuclei (marker of apoptosis) [2]: not in samples treated with daunorubicin

N.N.[Cl][Pt][Cl] [cisplatin]
IC50 for a breast cancer cell line [3]: 20 µg/mL

COc1ccc(C(=O)CCc2c(OC)cc(O)cc2OC)cc1 [4-hydroxy-2,6,4′-trimethoxydihydrochalcone]
EC50 [4]: 1.48 µM

CC(C)=CCC[C@]1(C)[C@@H](CC=C(C)C)C[C@]2(C)C(=O)C(CC=C(C)C)=C(O)[C@@]1(C(=O)C(C)C)C2=O [Hyperpolyphyllirin/hyperibine J]
Maximum tolerated concentration (MTC), HEK-293 [5]: 0.46 µg/mL | IC50, HEK-293 [5]: 0.79 µg/mL (≈ 1.64 µM) | IC50 [5]: 1.64 µM | Maximum tolerated concentration (MTC), HGF [6]: 10.47 µg/mL | IC50, HGF [6]: 12.41 µg/mL (≈ 25.7 µM) | IC50 [6]: 25.7 µM | Minimal bactericidal concentration (MBC), Staphylococcus aureus [7]: 94 µg/mL (≈ 195 µM) | MBC/MIC ratio, S. aureus [7]: 47 | MBC [7]: 194 µM (≈ 93.6 µg/mL) | MIC on bacteria, E. faecalis [8]: 8 µg/mL (≈ 16.6 µM) | MIC on bacteria, S. aureus [9]: 2 µg/mL (≈ 4.14 µM) | MIC on bacteria, MRSA [10]: 8 µg/mL (≈ 16.6 µM) | Colonies per well for HEK-293 cells ([11]; 1/2 × IC50, 48 h exposure): 110 | Percentage of colonies, HEK-293 ([11]; 1/2 × IC50): 89% | Colonies per well for HEK-293 cells ([11]; 2 × IC50, 48 h exposure): 67 | Percentage of colonies, HEK-293 ([11]; 2 × IC50): 54% | Colonies per well for HEK-293 cells ([11]; IC50, 48 h exposure): 91 | Percentage of colonies, HEK-293 ([11]; IC50): 73% | Colonies per well for HaCaT cells ([12]; 1/2 × IC50, 48 h exposure): 143 | Percentage of colonies, HaCaT ([12]; 1/2 × IC50): 259% | Colonies per well for HaCaT cells ([12]; 2 × IC50, 48 h exposure): 58 | Percentage of colonies, HaCaT ([12]; 2 × IC50): 105% | Colonies per well for HaCaT cells ([12]; IC50, 48 h exposure): 133 | Percentage of colonies, HaCaT ([12]; IC50): 241% | Colonies per well for CCL-1 cells ([13]; 1/2 × IC50, 48 h exposure): 162 | Percentage of colonies, CCL-1 ([13]; 1/2 × IC50): 111% | Colonies per well for CCL-1 cells ([13]; 2 × IC50, 48 h exposure): 113 | Percentage of colonies, CCL-1 ([13]; 2 × IC50): 77% | Colonies per well for CCL-1 cells ([13]; IC50, 48 h exposure): 116 | Percentage of colonies, CCL-1 ([13]; IC50): 79% | Maximum tolerated concentration (MTC), HEPG2 [14]: 5.13 µg/mL | IC50, HEPG2 [14]: 14.33 µg/mL (≈ 29.7 µM) | IC50 [14]: 29.7 µM | Maximum tolerated concentration (MTC), HaCaT [15]: 0.75 µg/mL | IC50, HaCaT [15]: 2.29 µg/mL (≈ 4.74 µM) | IC50 [15]: 4.74 µM | Maximum tolerated concentration (MTC), CCL-1 [16]: 4.56 µg/mL | IC50, CCL-1 [16]: 7.07 µg/mL (≈ 14.6 µM) | IC50 [16]: 14.7 µM | MIC on bacteria, S. pyogenes [17]: 31 µg/mL (≈ 64.2 µM)

c1cc2c(cc1[C@H]1OC[C@H]3[C@@H]1CO[C@@H]3c1ccc3c(c1)OCO3)OCO2 [sesamine]
EC50 [4]: 2.85 µM

Olympiforin A
Maximum tolerated concentration (MTC), HEK-293 [5]: 0.41 µg/mL | IC50, HEK-293 [5]: 0.69 µg/mL | IC50 [5]: 1.39 µM | Maximum tolerated concentration (MTC), HGF [6]: 16.78 µg/mL | IC50, HGF [6]: 19.44 µg/mL | IC50 [6]: 39.1 µM | MBC [18]: 1008 µM | MBC, Streptococcus pyogenes [18]: 500 µg/mL | MBC/MIC ratio, S. pyogenes [18, 23]: 40 | MBC, Pseudomonas aeruginosa PAO1 [19]: 2713 µg/mL | MIC, Pseudomonas aeruginosa PAO1 [19]: 1356 µg/mL | Minimal bactericidal concentration (MBC), Staphylococcus aureus [7]: 25 µg/mL | MBC/MIC ratio, S. aureus [7]: 32 | MBC [7]: 50 µM | MBC [20]: 252 µM | MBC, Enterococcus faecalis [20]: 125 µg/mL | MBC/MIC ratio, E. faecalis [20, 23]: 10 | MIC on bacteria, E. faecalis [8]: 12.5 µg/mL | MIC on bacteria, S. aureus [9]: 0.78 µg/mL | MIC on bacteria, MRSA [10]: 12.5 µg/mL | Maximum tolerated concentration (MTC), HEPG2 [14]: 2.51 µg/mL | IC50, HEPG2 [14]: 6.87 µg/mL | IC50 [14]: 13.8 µM | Maximum tolerated concentration (MTC), HaCaT [15]: 0.47 µg/mL | IC50, HaCaT [15]: 1.33 µg/mL | IC50 [15]: 2.68 µM | Maximum tolerated concentration (MTC), CCL-1 [16]: 3.27 µg/mL | IC50, CCL-1 [16]: 6.13 µg/mL | IC50 [16]: 12.3 µM | MBC [21]: 171 µM | MBC, Methicillin-Resistant S. aureus (MRSA) [21]: 85 µg/mL | MBC/MIC ratio, MRSA [21, 23]: 7 | MIC on bacteria, S. pyogenes [17]: 12.5 µg/mL

Cc1cc(O)c2c(=O)c3c(O)cc(O)c4c5c(O)cc(O)c6c(=O)c7c(O)cc(C)c8c1c2c(c34)c(c78)c65 [hypericin]
Effect on cell survival of fibroblasts [22]: did not have a significant effect | IC50 for a breast cancer cell line [3]: 5 µg/mL

Cerastioside A
IC50 [1]: 107 to 198 µM

Source: publication PMC12566971, “Polyprenylated Acylphloroglucinols from Hypericum rochelii and Hypericum olympicum—Cytotoxic Effects on Non-Tumorigenic Cell Lines and Antibacterial Potential” (Pharmaceuticals, 2025)
